Patent US8067382B2, “Anthelmintic composition” (Merial Limited, priority 2002, dated 2011)

Key:
liver flukes = conditions: background statement; cited from earlier work
[1] = Stability trial of Formulation 1 stored at ambient for 11 months, HPLC assay of actives; assay type: physicochemical
Procedure: A stability trial was conducted to ensure that the triclabendazole solution was stable. A formulation made as described in example 1 (“Formulation 1”) was stored at ambient for 11 months. At the conclusion of the storage period samples were tested for total abamectin and triclabendazole levels. [table]

[2] = background statement; cited from earlier work

## CSc1nc2cc(Cl)c(Oc3cccc(Cl)c3Cl)cc2[nH]1 [triclabendazole, 5-Chloro-6-(2,3-dichlorophenoxy)-2-methylthio-1H-benzimidazole]
Liver flukes
  Efficacy against liver flukes by life cycle stage: highly effective against liver flukes at all stages of their life cycle
[1]
  Loss in activity after storage: no loss in activity
  Physical stability of the solution after storage: remained in solution
[2]
  Solubility: highly insoluble

## Abamectin
[1]
  Loss in activity after storage: no loss in activity

## CCCSc1ccc2nc(NC(=O)OC)[nH]c2c1 [Albendazole]
Liver flukes
  Efficacy against liver flukes by life cycle stage: only effective against adult flukes
